Assay results: patent US20110112133A1, “DIHYDRO PYRROLOQUINOLINE DERIVATIVES” (Takeda Pharmaceutical Company Limited, priority 2009, published 2011)
Structures can show the parent of a compound that is named as a salt.

Assays:
hNK2 receptor = molecular target: T1, hNK2 receptor (Homo sapiens, UniProt P21452); assay: Radioligand receptor binding inhibitory activity using membrane fraction of hNK2 receptor-expressing CHO cell ([125I]-NKA); settings: for inhibition at 1 µM / inhibition at 0.1 µM / inhibition at 0.01 µM: read-out: hNK2 receptor binding inhibitory activity (inhibitory rate (%))
T1 construct: host or cells: CHO cells
T1 sequence (P21452 1-398): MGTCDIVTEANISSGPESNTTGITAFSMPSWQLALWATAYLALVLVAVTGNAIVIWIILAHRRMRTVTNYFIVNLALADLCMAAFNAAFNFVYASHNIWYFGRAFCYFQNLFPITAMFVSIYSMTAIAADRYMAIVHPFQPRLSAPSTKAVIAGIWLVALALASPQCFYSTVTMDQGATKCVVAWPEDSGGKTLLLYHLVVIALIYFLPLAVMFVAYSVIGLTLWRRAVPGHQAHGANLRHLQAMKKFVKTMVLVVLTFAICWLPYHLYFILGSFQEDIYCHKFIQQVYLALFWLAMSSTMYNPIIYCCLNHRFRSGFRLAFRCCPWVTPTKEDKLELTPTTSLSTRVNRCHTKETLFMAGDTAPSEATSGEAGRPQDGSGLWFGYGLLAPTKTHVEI
Procedure: Radioligand Receptor Binding Inhibitory Activity Using Membrane Fraction of hNK2 Receptor-Expressing CHO Cell
hNK2 receptor-expressing CHO cells (produced by EUROSCREEN) were cultured in a flask placed HAM-F12 medium containing 400 μg/mL Geneticin, 100 U/mL penicillin, 100 μg/mL streptomycin and 10% inactivated serum. The medium was removed and adhered cells were washed with PBS, and PBS containing 5 mM EDTA was added to detach the cells from the flask. The cells were recovered by centrifugation, suspended in suspending buffer A (15 mM Tris-HCl (pH 7.5), 12.5 mM MgCl2, 0.3 mM EDTA, 1 mM EGTA (Ethylene Glycol Bis(beta-aminoethylether)-N,N,N,N-tetraacetic Acid)), disrupted by POLYTRON homogenizer (manufactured by KINEMATICA) and centrifuged at 850×g for 10 min at 4° C. The supernatant was recovered and ultracentrifuged at 142000×g for 60 min at 4° C. The precipitated fraction was suspended in suspending buffer B (7.5 mM Tris-HCl (pH 7.5), 12.5 mM MgCl2, 0.3 mM EDTA, 1 mM EGTA, 250 mM sucrose), and cryopreserved (at −80° C.) as a membrane fraction preparation of hNK2 receptor-expressing CHO cell.
The radioligand receptor binding assay was performed in a 96 well microassay plate format with a final volume of 200 μL.
An assay buffer (50 μL, 50 mM Tris-HCl (pH 7.4), 0.02% bovine serum albumin, 2 μg/mL chymostatin, 40 μg/mL bacitracin, 40 μg/mL APMSF, 3 mM MnCl2) was added to a 96 well microassay plate. Thereto was added 50 μL of the above-mentioned cryopreserved membrane fraction preparation suspended in the assay buffer (20 μg/mL). An assay buffer (50 μL) containing 2% dimethyl sulfoxide was added to examine the total binding, 4 μM unlabeled NKA (produced by Peptide Institute, Inc.) solution (50 μL) diluted with an assay buffer containing 2% dimethyl sulfoxide was added to examine non-specific binding, and a test compound diluted with an assay buffer (50 μL, containing 2% dimethyl sulfoxide) was added. Furthermore, […] [^125I]-NKA (produced by NEN) solution (50 μL) was added to each well.
After reaction at room temperature for 30 min, using a cell harvester (manufactured by PerkinElmer), the reaction was stopped by rapid filtration on a unifilter plate (GF/C) (manufactured by PerkinElmer), which had been immersed in 0.3% aqueous polyethyleneimine solution for one day, and the cells were washed 10 times with 50 mM Tris-HCl (pH 7.4) buffer (250 μL) containing 0.02% bovine serum albumin. The GF/C filter plate was dried and 20 μL of MicroScinti-0 (manufactured by PerkinElmer) was added to each well and the radioactivity was measured by TopCount (manufactured by PerkinElmer).
Specific binding is shown by the value obtained by subtracting non-specific binding from the total binding. The binding inhibitory activity of the test compound is shown by the ratio of the value obtained by subtracting the measured value associated with the addition of the test compound from the total binding, to the value of the specific binding.

inhibition at 1 µM (hNK2 receptor; test compound 10^−6 M) [%]	inhibition at 0.1 µM (hNK2 receptor; test compound 10^−7 M) [%]	inhibition at 0.01 µM (hNK2 receptor; test compound 10^−8 M) [%]	hNK2 receptor binding inhibitory activity (inhibitory rate (%)) (hNK2 receptor; test compound 10^−6 M) [%]	hNK2 receptor binding inhibitory activity (inhibitory rate (%)) (hNK2 receptor; test compound 10^−7 M) [%]	hNK2 receptor binding inhibitory activity (inhibitory rate (%)) (hNK2 receptor; test compound 10^−8 M) [%]	melting point [°C]	SMILES
99.4	99.4	96.1					Cc1ccn(-c2ccc(C(=O)N[C@@H]3CCC(F)(F)C[C@@H]3C(=O)N3CCc4c(-c5ncc[nH]5)nc5ccc(F)cc5c43)cc2)n1 [Example 6, N-[(1R,2S)-4,4-difluoro-2-{[8-fluoro-4-(1H-imidazol-2-yl)-2,3-dihydro-1H-pyrrolo[3,2-c]quinolin-1-yl]carbonyl}cyclohexyl]-4-(3-methyl-1H-pyrazol-1-yl)benzamide hydrochloride]
			100.7	100.2	98.5		Cc1ccn(-c2ccc(C(=O)N[C@@H]3CCC(F)(F)C[C@@H]3C(=O)N3CCc4c(-c5ccsc5)nc5ccccc5c43)cc2)n1.Cl [Example 8]
			99.9	99.5	92.8		Cc1ccn(-c2ccc(C(=O)N[C@@H]3CCC(F)(F)C[C@@H]3C(=O)N3CCc4c(-c5ccccc5)nc5ccc(F)cc5c43)cc2)n1.Cl [Example 10, N-{(1R,2S)-4,4-difluoro-2-[(8-fluoro-4-phenyl-2,3-dihydro-1H-pyrrolo[3,2-c]quinolin-1-yl)carbonyl]cyclohexyl}-4-(3-methyl-1H-pyrazol-1-yl)benzamide hydrochloride]
101	101	99.8				232	Cc1ccn(-c2ccc(C(=O)N[C@@H]3CCC(F)(F)C[C@@H]3C(=O)N3CCc4c(-c5ncc[nH]5)nc5ccccc5c43)cc2)n1.Cl [Example 12, N-[(1R,2S)-4,4-difluoro-2-{[4-(1H-imidazol-2-yl)-2,3-dihydro-1H-pyrrolo[3,2-c]quinolin-1-yl]carbonyl}cyclohexyl]-4-(3-methyl-1H-pyrazol-1-yl)benzamide hydrochloride]
